According to patent US20050171084A1, “Methods of treatment with lxr modulators” (priority 2002, published 2005):

What was measured:
Hippocampal neurons = assay: Neurite outgrowth in hippocampal neurons; assay type: cell-based, rat; details: HC neurons, 48 hours, SEM in parentheses
Procedure: Hippocampal neurons: The hippocampi of gestational day 18 rat embryos were dissected out, incubated in trypsin (0.08%, 30 min at 37° C.) and dissociated mechanically (16). Hippocampal cells were resuspended in neurobasal medium supplemented with B27, anti-oxidants, 1 mM glutamine, 25 μM glutamate, 1 mM pyruvate. For outgrowth assays, cells were plated at a density of 3000 cells/well into 96 well dishes that had previously been coated with poly-D-lysine followed by 10% FCS and cultured for 48 hours.
The test compound was solubilised in DMSO and added to culture medium at time of cell plating at a dilution of 1:1000. Vehicle only (1:1000) was added to culture medium of untreated controls. Cells were fixed with 4% paraformaldehyde for 1 hour on ice, washed with PBS and stained using Coomassie. Assays were quantified using a KS300 image analysis system (Imaging Associates, UK). For each cell measured, the length from the edge of the cell to the end of the longest neurite was measured for 100 cells/well for each treatment in triplicate. All data are means and SEM pooled from three independent experiments. Results are expressed as a percentage of the length of neurites of cells treated with vehicle alone.

[1] = tested on: NTW8 mouse microglial cells; assay: Secretion of pro-inflammatory mediators from LPS/IFN-γ stimulated microglia; assay type: cell-based; details: LPS/INF-γ stimulated microglia cells, 24 hrs
Procedure: NTW8 mouse microglial cells were plated into a 96 well plate at a density of 2×10^5 cells/well in DMEM supplemented with 10% FCS, 2 mM glutamine, 10 ng/ml basic fibroblast growth factor (R&D Systems) and N-2 (Gibco). Next day, cell were stimulated for 24 hrs in DMEM containing 10 ng/ml LPS (Sigma) and 20 U/ml IFN-γ (Gibco) in the presence of increasing concentrations of the test compound solubilised in DMSO. Media was removed after 24 hrs and analysed by ELISA for secreted IL-6, TNF-α (R&D systems) and PGE2 (Amersham) or via a Greiss assay for nitric oxide (NO) production. Cell viability was assessed by an MTT assay (Promega). All data are means and SEM pooled from two independent experiments. Results are expressed as a percentage of the LPS\INF-γ stimulated control cells treated with DMSO alone.

## O=C(O)Cc1cccc(OCCCN(Cc2cccc(C(F)(F)F)c2Cl)CC(c2ccccc2)c2ccccc2)c1 [Example 1, 2-(3-{3-[[2-Chloro-3-(trifluoromethyl)benzyl](2,2-diphenylethyl)amino]propoxy}-phenyl)acetic Acid]
Hippocampal neurons; 0.3 μm test compound
  length of longest neurite, percentage of cells treated with vehicle alone: 109 (6.25) %
Hippocampal neurons; 1.0 μm test compound
  length of longest neurite, percentage of cells treated with vehicle alone: 113 (5.05) %
Hippocampal neurons; 3.0 μm test compound
  length of longest neurite, percentage of cells treated with vehicle alone: 120 (7.75) %
Hippocampal neurons; 10.0 μm test compound
  length of longest neurite, percentage of cells treated with vehicle alone: 147 (11.8) %
[1]; ELISA (FIG. 2)
  secretion of IL-6: inhibited
  secretion of PGE2: inhibited
  secretion of TNF-α: inhibited
[1]; Greiss assay (FIG. 2)
  NO production: inhibited
